Assay results as given in patent US20050182252A1, “Novel 2'-C-methyl nucleoside derivatives” (priority 2004, published 2005).
Structures can show the parent of a compound that is named as a salt.

SMILES	melting point [°C]
C[C@@]1(O)[C@H](O)[C@@H](COP2(=O)OCC[C@H](c3ccc(F)c(Br)c3)O2)O[C@H]1n1ccc2c(N)ncnc21 (stereo partly shown) (as salt: salt) [Compound 16.31]	122 to 125
C[C@@]1(O)[C@H](O)[C@@H](COP2(=O)OC[C@@H](c3ccccc3)[C@@H](c3ccccc3)O2)O[C@H]1n1ccc2c(N)ncnc21 (stereo partly drawn) (as salt: trifluoroacetic acid salt) [Compound 16.13, 4-amino-7-(cis-5′-O-14,5-cis-diphenyl-2-oxo-1,3,2-dioxaphosphorinan-2-yl]-2′-C-methyl-beta-D-ribofuranosyl)-7H-pyrrolo[2,3-d]pyrimidine trifluoroacetic acid salt]	174 to 177
C[C@@]1(O)[C@H](O)[C@@H](COP2(=O)O[C@H](c3ccccc3)C[C@H](c3ccccc3)O2)O[C@H]1n1ccc2c(N)ncnc21 (stereo partly drawn) (as salt: trifluoroacetic acid salt) [Compound 16.16, 4-amino-7-(cis-5′-O-[4,6-cis-diphenyl-2-oxo-1,3,2-dioxaphosphorinan-2-yl]-2′-C-methyl-beta-D-ribofuranosyl)-7H-pyrrolo[2,3-d]pyrimidine trifluoroacetic acid salt]	140 to 143
C[C@@]1(O)[C@H](O)[C@@H](CO[P@@]2(=O)O[C@H](c3ccccc3)C[C@H](c3ccccc3)O2)O[C@H]1n1ccc2c(N)ncnc21 (as salt: trifluoroacetic acid salt) [Compound 16.18, 4-amino-7-(trans-5′-O-[4,6-cis-diphenyl-2-oxo-1,3,2-dioxaphosphorinan-2-yl]-2′-C-methyl-beta-D-ribofuranosyl)-7H-pyrrolo[2,3-d]pyrimidine trifluoroacetic acid salt]	> 220
CO[C@@H]1COP(=O)(OC[C@H]2O[C@@H](n3ccc4c(N)ncnc43)[C@](C)(O)[C@@H]2O)O[C@@H]1c1cccc(Cl)c1 (stereo partly shown) (as salt: trifluoroacetic acid salt) [Compound 16.23]	116 to 120
CO[C@H]1COP(=O)(OC[C@H]2O[C@@H](n3ccc4c(N)ncnc43)[C@](C)(O)[C@@H]2O)O[C@@H]1c1cccc(Cl)c1 (stereo partly shown) (as salt: trifluoroacetic acid salt) [Compound 16.24]	140 to 143
C[C@@]1(O)[C@H](O)[C@@H](COP2(=O)OCC[C@H](c3ccccn3)O2)O[C@H]1n1ccc2c(N)ncnc21 (stereo partly drawn) (as salt: trifluoroacetic acid salt) [Compound 16.33, 4-amino-7-(cis-5′-O-14-(pyridin-2-yl-2-oxo-1,3,2-dioxaphosphorinan-2-yl]-2′-C-methyl-beta-D-ribofuranosyl)-7H-pyrrolo[2,3-d]pyrimidine trifluoroacetic acid salt]	88 to 90
C[C@@]1(O)[C@H](O)[C@@H](COP2(=O)OCC[C@H](c3ccc(Cl)cc3)O2)O[C@H]1n1ccc2c(N)ncnc21 (stereo partly drawn) (as salt: trifluoroacetic acid salt) [Compound 16.35, 4-amino-7-(cis-5′-O-[4-(4-chlorophenyl-2-oxo-1,3,2-dioxaphosphorinan-2-yl]-2′-C-methyl-beta-D-ribofuranosyl)-7H-pyrrolo[2,3-d]pyrimidinetrifluoroacetic acid salt]	182 to 184
C[C@@]1(O)[C@H](O)[C@@H](COP2(=O)OCC[C@H](c3cccc(F)c3F)O2)O[C@H]1n1ccc2c(N)ncnc21 (stereo partly drawn) (as salt: trifluoroacetic acid salt) [Compound 16.36, 4-amino-7-(cis-5′-O-[4-(2,3-difluorophenyl)-2-oxo-1,3,2-dioxaphosphorinan-2-yl]-2′-C-methyl-beta-D-ribofuranosyl)-7H-pyrrolo[2,3-d]pyrimidine trifluoroacetic acid salt]	177 to 180
COc1ccc(F)c([C@H]2CCOP(=O)(OC[C@H]3O[C@@H](n4ccc5c(N)ncnc54)[C@](C)(O)[C@@H]3O)O2)c1 (stereo partly drawn) (as salt: trifluoroacetic acid salt) [Compound 16.37, 4-amino-7-(cis-5′-O-[4-(2-fluoro-5-methoxyphenyl)-2-oxo-1,3,2-dioxaphosphorinan-2-yl]-2′-C-methyl-beta-D-ribofuranosyl)-7H-pyrrolo[2,3-d]pyrimidine trifluoroacetic acid salt]	80 to 85
C[C@@]1(O)[C@H](O)[C@@H](COP2(=O)OCC[C@H](c3ccc(F)cc3Cl)O2)O[C@H]1n1ccc2c(N)ncnc21 (stereo partly drawn) (as salt: trifluoroacetic acid salt) [Compound 16.38, 4-amino-7-(cis-5′-O-[4-(2-chloro-4-fluorophenyl)-2-oxo-1,3,2-dioxaphosphorinan-2-yl]-2′-C-methyl-beta-D-ribofuranosyl)-7H-pyrrolo[2,3-d]pyrimidine trifluoroacetic acid salt]	138 to 141

Next, values leading:

melting point [°C]	SMILES
192 to 195	C[C@@]1(O)[C@H](O)[C@@H](COP2(=O)OCC[C@H](c3ccc(Cl)c(Cl)c3)O2)O[C@H]1n1ccc2c(=O)[nH]c(N)nc21 (stereo partly drawn) (as salt: salt) [Compound 17.22, 2-amino-7-(cis-5′-O-[4-(3,4-dichlorophenyl)-2-oxo-1,3,2-dioxaphosphorinan-2-yl]-2′-C methyl-beta-D-ribofuranosyl)-7H-pyrrolo[2,3-d]pyrimidin-4(3H)-one]
185 to 189	C[C@@]1(O)[C@H](O)[C@@H](COP2(=O)OCC[C@H](c3cncc(Br)c3)O2)O[C@H]1n1ccc2c(=O)[nH]c(N)nc21 (stereo partly drawn) (as salt: salt) [Compound 17.26, 2-amino-7-(cis-5′-O-[4-(5-bromo-pyridin-3-yl)-2-oxo-1,3,2-dioxaphosphorinan-2-yl]-2′-C methyl-beta-D-ribofuranosyl)-7H-pyrrolo[2,3-d]pyrimidin-4(3H)-one]
180 to 190	C[C@@]1(O)[C@H](O)[C@@H](COP2(=O)OCC[C@@H](c3ccccn3)O2)O[C@H]1n1ccc2c(=O)[nH]c(N)nc21 (stereo partly drawn) (as salt: trifluoroacetic acid salt) [Compound 17.8, 2-amino-7-(cis-5′-O-[4-(pyridin-2-yl)-2-oxo-1,3,2-dioxaphosphorinan-2-yl]-2′-C methyl-beta-D-ribofuranosyl)-7H-pyrrolo[2,3-d]pyrimidin-4(3H)-one trifluoroacetic acid salt]
185 to 188	C[C@@]1(O)[C@H](O)[C@@H](COP2(=O)OCC[C@@H](c3ccccc3C(F)(F)F)O2)O[C@H]1n1ccc2c(=O)[nH]c(N)nc21 (stereo partly drawn) (as salt: trifluoroacetic acid salt) [Compound 17.9, 2-amino-7-(cis-5-O-[4-(2-trifluoromethylphenyl)-2-oxo-1,3,2-dioxaphosphorinan-2-yl]-2′-C methyl-beta-D-ribofuranosyl)-7H-pyrrolo[2,3-d]pyrimidin-4(3H)-one trifluoroacetic acid salt]
170 to 180	C[C@@]1(O)[C@H](O)[C@@H](CO[P@]2(=O)OCC[C@H](c3cccc(Cl)c3)O2)O[C@H]1n1ccc2c(=O)[nH]c(N)nc21 (as salt: trifluoroacetic acid salt) [Compound 17.10, 2-amino-7-(cis-5′-O-[4-(R)-(3-chlorophenyl)-2-oxo-1,3,2-dioxaphosphorinan-2-yl]-2′-C methyl-beta-D-ribofuranosyl)-7H-pyrrolo[2,3-d]pyrimidin-4(3H)-one trifluoroacetic acid salt]
182 to 185	C[C@@]1(O)[C@H](O)[C@@H](COP2(=O)OCC[C@H](c3cc(F)cc(F)c3)O2)O[C@H]1n1ccc2c(=O)[nH]c(N)nc21 (stereo partly drawn) (as salt: trifluoroacetic acid salt) [Compound 17.11, 2-amino-7-(cis-5-O-[4-(3,5-difluorophenyl)-2-oxo-1,3,2-dioxaphosphorinan-2-yl]-2-C methyl-beta-D-ribofuranosyl)-7H-pyrrolo[2,3-d]pyrimidin-4(3H)-one trifluoroacetic acid salt]
187 to 190	C[C@@]1(O)[C@H](O)[C@@H](COP2(=O)OC[C@H](c3ccccc3)[C@H](c3ccccc3)O2)O[C@H]1n1ccc2c(=O)[nH]c(N)nc21 (stereo partly drawn) (as salt: trifluoroacetic acid salt) [Compound 17.17, 2-amino-7-(cis-5′-[4,5-cis-diphenyl-2-oxo-1,3,2-dioxaphosphorinan-2-yl]-2-C methyl-beta-D-ribofuranosyl)-7H-pyrrolo[2,3-d]pyrimidin-4(3H)-one trifluoroacetic acid salt]
192 to 194	CC1(C)C[C@H](c2ccccc2)OP(=O)(OC[C@H]2O[C@@H](n3ccc4c(=O)[nH]c(N)nc43)[C@](C)(O)[C@@H]2O)O1 (stereo partly drawn) (as salt: trifluoroacetic acid salt) [Compound 17.18, 2-amino-7-(cis-5′-O-[6,6-dimethyl-4-phenyl-2-oxo-1,3,2-dioxaphosphorinan-2-yl]-2′C methyl-beta-D-ribofuranosyl)-7H-pyrrolo[2,3-d]pyrimidin-4(3H)-one trifluoroacetic acid salt]
215 to 220	C[C@@]1(O)[C@H](O)[C@@H](COP2(=O)OCC[C@H](c3cccc(F)c3F)O2)O[C@H]1n1ccc2c(=O)[nH]c(N)nc21 (stereo partly drawn) (as salt: trifluoroacetic acid salt) [Compound 17.20, 2-amino-7-(cis-5′-O[4-(2,3-difluorophenyl)-2-oxo-1,3,2-dioxaphosphorinan-2-yl]-2′-C methyl-beta-D-ribofuranosyl)-7H-pyrrolo[2,3-d]pyrimidin-4(3H)-one trifluoroacetic acid salt]
125 to 128	C[C@@]1(O)[C@H](O)[C@@H](COP2(=O)OCC[C@@H](c3cccc(Cl)c3)O2)O[C@H]1n1cnc2c(N)ncnc21 (stereo partly drawn) (as salt: trifluoroacetic acid salt) [Compound 21.1, cis-5′-O-[4-(S)-(3-chlorophenyl)-2-oxo-1,3,2-dioxaphosphorinan-2-yl]-2′-C-beta-methyl-adenosine trifluoroacetic acid salt]
118 to 120	C[C@@]1(O)[C@H](O)[C@@H](COP2(=O)OCC[C@@H](c3ccccn3)O2)O[C@H]1n1cnc2c(N)ncnc21 (stereo partly drawn) (as salt: trifluoroacetic acid salt) [Compound 21.7, cis-5′-O-[4-(pyridin-2-yl)-2-oxo-1,3,2-dioxaphosphorinan-2-yl]-2′-C-beta-methyl-adenosine trifluoroacetic acid salt]
